Columns and labels:
[1] = design: method as in De Zotti et al., 2009; conditions: ref De Zotti et al., 2009; cited from earlier work
[2] = tested on: methicillin-resistant human pathogens; conditions: ref De Zotti et al., 2009; cited from earlier work
[3] = Hydrophilicity evaluated from HPLC retention times; format: physicochemical; conditions: comparison to native Trichogin GA IV, C18 column Phenomenex Jupiter 5 μm, 300 Å, 250 × 4.5 mm, gradient 60%–100% B in 30 min, A H2O/CH3CN 9:1 0.05% TFA, B CH3CN/H2O 9:1 0.05% TFA
[4] = tested on: Solanum lycopersicum cv. Micro-Tom leaves; test: ROS detection with H2DCFDA on tomato leaves; conditions: 50 μM in water, 10-μl droplets on abaxial surface of detached Micro-Tom leaves; 24 and 48 h; H2DCFDA fluorescence microscopy

Molecule | Resistance to proteolysis [1] | Antibacterial activity against methicillin-resistant human pathogens [2] | Hydrophilicity [3] | ROS production on tomato leaves [4]
1-octanoyl-Aib-Gly-Leu-Aib-Gly-Gly-Leu-Aib-Gly-Ile-Lol [Trichogin GA IV, 11-residue lipopeptaibol naturally produced by Trichoderma longibrachiatum] | remarkable resistance to proteolysis | antibacterial activity | – | –
CCCCCCCC(=O)NC(C)(C)C(=O)NCC(=O)N[C@@H](CC(C)C)C(=O)NC(C)(C)C(=O)N[C@@H](CCCCN)C(=O)NC(C)(C)C(=O)N[C@@H](CC(C)C)C(=O)NC(C)(C)C(=O)NCC(=O)N[C@H](C(=O)N[C@@H](CC(C)C)C(N)=O)[C@@H](C)CC [Pep 6r] | – | – | + | only Pep 4-treated leaves showed ROS production
